Converted amounts (≈) assume the structure as drawn.
How the values were obtained:
[1] = test system: Helicobacter pylori type strain (H. pylori 26695); experiment: Minimum bacteriostatic concentration by agar-well diffusion (inhibitory rings); type: cell-based; conditions: for Inhibitory rings: cultivated two days
Description: Different concentrations of ovatodiolide disks are used to cultivate with Helicobacter pylori for two days respectively. Then, the minimum concentrations for inhibiting Helicobacter pylori are determined by using agar-well diffusion. The results are used for analyzing the minimum concentration of ovatodiolide for inhibiting the growth of Helicobacter pylori type strain (H. pylori 26695). […] Based on the experimental results, 10 μM and 20 μM of ovatodiolide have inhibitory rings; the diameters of the inhibitory rings are 10±0.5 mm and 19±0 mm respectively. This proves that the minimum bacteriostatic concentration of ovatodiolide for inhibiting Helicobacter pylori is 10 μM.

[2] = test system: Hp reference strain 26695; experiment: Minimum bactericidal concentration, serial dilution and spread plate method; type: cell-based, Helicobacter pylori; conditions: cultivated six hours; type strain 26695
Description: (§1) Different concentrations of ovatodiolide are prepared by using serial dilution method, and Helicobacter pylori type strain and multidrug-resistant gastric Helicobacter pylori (v633, v1354) separated from laboratory are cultivated for six hours respectively. Then, ovatodiolide is analyzed by using spread plate method to observe the number of colony growth, and analyze the minimum bactericidal concentrations of ovatodiolide for completely killing Helicobacter pylori type strain and multidrug-resistant strains. Based on the results on Table 2, the minimum bactericidal concentration of ovatodiolide for Helicobacter pylori type strain is 200 μM, and the minimum bactericidal concentrations for multidrug-resistant strains v633 and v1354 are 100 μM.

Hp v1354 = experiment: as above; type: cell-based, Helicobacter pylori; conditions: cultivated six hours; multidrug-resistant strain v1354
Description: as §1

Hp v633 = experiment: as above; type: cell-based, Helicobacter pylori; conditions: cultivated six hours; multidrug-resistant strain v633
Description: as §1

[3] = test system: extracts of Escherichia coli (E. coli S30); experiment: In vitro transcription/translation system with pGL3 luciferase readout; type: biochemical; conditions: 10 μM; FIG. 1
Description: The structure of ovatodiolide is similar to that of the medicines in antibiotics for inhibiting protein generation. In order to understand whether the mechanism of ovatodiolide for inhibiting Helicobacter Pylori is related to protein synthesis, let ovatodiolide and extracts of Escherichia coli (E. coli S30) to take effect for 10 minutes by using in vitro transcription/translation systems. Then, pGL3 luciferase is added for carrying out transcription and translation reaction for 2 hours. Finally, the reacted sample is added with luciferin for it to present color by using Dual-Luciferase Reporter Assay System. Then, microplate luminometer is used to determine the […] in order to find out whether ovatodiolide can inhibit protein synthesis.
Among them, inhibition of 30S subunit using kanamycin and inhibition of […] using erythromycin are used as control groups.

[4] = test system: protein RpsB in 30S ribosomal subunit; experiment: Western blot analysis of RpsB content in Helicobacter pylori lysates; type: cell-based; conditions: H. pylori cultivated with ovatodiolide of different concentrations for 6 hours; FIG. 2
Description: In this embodiment, the process of protein translation has three steps, namely, initiation, elongation and termination of ribosomes. In order to further analyze whether ovatodiolide is effected on ribosomes causing protein synthesis unable to proceed smoothly, western blot analysis is used to determine the content of protein RpsB in 30S ribosomal subunit. Helicobacter pylori is cultivated with ovatodiolide of different concentrations for 6 hours, and extract total cell lysates. Separate total cell lysates by using 10% SDS-PAGE, transfer protein using PVDF membrane, and carry out hybridization with protein using RpsB antibody. Then, detect RpsB antibody using anti-rabbit antibody; finally, a chromogenic reagent is added, and observe results by using the apparatus Azure C400 Biosystems.
FIG. 2 is an expression of 30S ribosomal subunits RpsB analyzed by using western blot analysis. Wherein kanamycin (400 μM) and erythromycin (400 μM) are used as control groups.

SMILES: C=C1C(=O)O[C@@H]2/C=C(\C)C[C@H]3C=C(CC/C=C(\C)CC[C@@H]12)C(=O)O3 [ovatodiolide]
- minimum bacteriostatic concentration ([1]; agar-well diffusion, H. pylori 26695): 10 µM
- Inhibitory rings ([1]; ovatodiolide 10 μM): 10±0.5 mm
- Inhibitory rings ([1]; ovatodiolide 20 μM): 19±0 mm
- Minimum bactericidal concentration [2]: 200 µM (≈ 65.7 µg/mL)
- Minimum bactericidal concentration (Hp v1354): 100 µM (≈ 32.8 µg/mL)
- Minimum bactericidal concentration (Hp v633): 100 µM (≈ 32.8 µg/mL)
- inhibition of protein synthesis [3]: more than 50%
- expression of protein RpsB [4]: reduces significantly
